Patent publication US6914045B2, “Glycopeptide antibiotics” (Wyeth Holdings Corporation, priority 2001, dated 2005)
In brackets after ≈: the same amount, converted by molar mass.

Legend:
Enterococcus sp. = assay: in vitro antibacterial evaluation, MIC by broth dilution; assay type: cell-based; conditions: broth dilution, 18 hours at 35° C.
In short: (§1)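 MIC, the lowest antibiotic concentration preventing growth, was read across 64-0.06 μg/mL with 5×10^5 CFU/mL inoculum. Method followed NCCLS M7-A2 broth dilution using Mueller-Hinton II; Gram-positive strains covered recent methicillin-, penicillin- and/or vancomycin-resistant clinical isolates.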

Staphylococcus sp. = assay: as above; assay type: cell-based; conditions: broth dilution, 18 hours at 35° C.
In short: as §1

Streptococcus sp. = assay: as above; assay type: cell-based; conditions: broth dilution, 18 hours at 35° C.
In short: as §1

[1] = clinical pathology (serum clinical chemistry) in mice; assay type: in vivo; conditions: CD-1 mice, 20 mg/kg intravenously daily for 9 days, sera day 10
Method: 20-day-old CD-1 mice were divided into a vehicle control group (5 mice) and a treatment group (5 mice). Samples of glycopeptide antibiotics were administered at 20 mg/kg intravenously daily for 9 days.

[2] = anatomic pathology (histopathology of heart and kidney) in mice; assay type: in vivo; conditions: CD-1 mice, 20 mg/kg intravenously daily for 9 days, necropsy day 10, microscopic histopathology
Method: Samples of tissues from necropsied mice were formalin-fixed, paraffin-embedded, sectioned, stained with hematoxylin and eosin, and examined microscopically. Histopathologic findings were recorded. These findings were subjectively graded on a scale corresponding to slight, mild, moderate, marked and severe as compared to untreated controls.

Escherichia coli = assay: in vitro antibacterial evaluation, MIC by broth dilution; assay type: cell-based; conditions: 18 hours at 35° C.
In short: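 MIC is the lowest antibiotic concentration (tested 64-0.06 μg/mL) preventing growth of a 5×10^5 CFU/mL inoculum. Determined by broth dilution in Mueller-Hinton II medium following NCCLS standard M7-A2.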

## CC(c1ccccc1)C1NC(=O)CNC(=O)C(CO)NC(=O)C(C(O)C2CN(CCCCCCCCCCCCO)C(=N)N2C2OC(CO)C(O)C(O)C2O)NC(=O)C(C(O)C2CNC(=N)N2)NC(=O)C(Cc2ccc(OC3OC(CO)C(OC4OC(CO)C(O)C(O)C4O)C(O)C3O)cc2)NC1=O (stereo not drawn) [Example 61, Cyclo[glycyl-β-methylphenylalanyl-O-(4-O-hexopyranosylhexopyranosyl)tyrosl-3-(2-iminoimidazolidin-4-yl)seryl-3-[3-hexopyranosyl-1-(12-hydroxydodecyl)-2-iminoimidazolidin-4-yl]-serylseryl]]
Enterococcus sp.; Enterococcus avium (GC 4558)
  MIC Enterococcus avium (GC 4558): 64 µg/mL (≈ 43.3 µM)
Enterococcus sp.; Enterococcus faecalis (ATCC 29212)
  MIC Enterococcus faecalis (ATCC 29212): 128 µg/mL (≈ 86.5 µM)
Enterococcus sp.; Enterococcus faecalis (GC 4552)
  MIC Enterococcus faecalis (GC 4552): 128 µg/mL (≈ 86.5 µM)
Enterococcus sp.; Enterococcus faecalis (GC 4553)
  MIC Enterococcus faecalis (GC 4553): 128 µg/mL (≈ 86.5 µM)
Enterococcus sp.; Enterococcus faecalis (GC 4554)
  MIC Enterococcus faecalis (GC 4554): 128 µg/mL (≈ 86.5 µM)
Enterococcus sp.; Enterococcus faecalis (GC 6189)
  MIC Enterococcus faecalis (GC 6189): 128 µg/mL (≈ 86.5 µM)
Enterococcus sp.; Enterococcus faecium (GC 2243)
  MIC Enterococcus faecium (GC 2243): >128 µg/mL
Enterococcus sp.; Enterococcus faecium (GC 4556)
  MIC Enterococcus faecium (GC 4556): 128 µg/mL (≈ 86.5 µM)
Enterococcus sp.; Enterococcus faecium (GC 4557)
  MIC Enterococcus faecium (GC 4557): 128 µg/mL (≈ 86.5 µM)
Enterococcus sp.
  MIC Enterococcus avium (GC 4558): 64 µg/mL (≈ 43.3 µM)
  MIC Enterococcus faecalis (ATCC 29212): 128 µg/mL (≈ 86.5 µM)
  MIC Enterococcus faecalis (GC 2242): 128 µg/mL (≈ 86.5 µM)
  MIC Enterococcus faecalis (GC 2691): 128 µg/mL (≈ 86.5 µM)
  MIC Enterococcus faecalis (GC 3059): 128 µg/mL (≈ 86.5 µM)
  MIC Enterococcus faecalis (GC 4552): 128 µg/mL (≈ 86.5 µM)
  MIC Enterococcus faecalis (GC 4553): 128 µg/mL (≈ 86.5 µM)
  MIC Enterococcus faecalis (GC 4554): 128 µg/mL (≈ 86.5 µM)
  MIC Enterococcus faecalis (GC 6189): 128 µg/mL (≈ 86.5 µM)
  MIC Enterococcus faecium (GC 2243): >128 µg/mL
  MIC Enterococcus faecium (GC 4556): 128 µg/mL (≈ 86.5 µM)
  MIC Enterococcus faecium (GC 4557): 128 µg/mL (≈ 86.5 µM)
Enterococcus sp.; strain GC 2242
  MIC Enterococcus faecalis (GC 2242): 128 µg/mL (≈ 86.5 µM)
Enterococcus sp.; strain GC 2691
  MIC Enterococcus faecalis (GC 2691): 128 µg/mL (≈ 86.5 µM)
Enterococcus sp.; strain GC 3059
  MIC Enterococcus faecalis (GC 3059): 128 µg/mL (≈ 86.5 µM)
Staphylococcus sp.; strain ATCC 29213
  MIC Staphylococcus aureus (ATCC 29213): >128 µg/mL
Staphylococcus sp.; strain GC 1131
  MIC Staphylococcus aureus (GC 1131): >128 µg/mL
Staphylococcus sp.; strain GC 3051
  MIC Staphylococcus aureus (GC 3051): >128 µg/mL
Staphylococcus sp.; strain GC 3053
  MIC Staphylococcus aureus (GC 3053): 128 µg/mL (≈ 86.5 µM)
Staphylococcus sp.; strain GC 4541
  MIC Staphylococcus aureus (GC 4541): >128 µg/mL
Staphylococcus sp.; strain GC 4542
  MIC Staphylococcus aureus (GC 4542): >128 µg/mL
Staphylococcus sp.; strain GC 4543
  MIC Staphylococcus aureus-SMITH (GC 4543): >128 µg/mL
Staphylococcus sp.; strain GC 4544
  MIC Staphylococcus aureus (GC 4544): >128 µg/mL
Staphylococcus sp.; strain GC 4545
  MIC Staphylococcus aureus (GC 4545): >128 µg/mL
Staphylococcus sp.; strain GC 4546
  MIC Staphylococcus haemolyticus (GC 4546): >128 µg/mL
Staphylococcus sp.; strain GC 4547
  MIC Coagulase Negative Staphylococcus (GC 4547): 128 µg/mL (≈ 86.5 µM)
Staphylococcus sp.; strain GC 4548
  MIC Coagulase Negative Staphylococcus (GC 4548): >128 µg/mL
Staphylococcus sp.; strain GC 4549
  MIC Coagulase Negative Staphylococcus (GC 4549): 128 µg/mL (≈ 86.5 µM)
Staphylococcus sp.; strain GC 4551
  MIC Coagulase Negative Staphylococcus (GC 4551): >128 µg/mL
Staphylococcus sp.; strain GC 6257
  MIC Coagulase Negative Staphylococcus (GC 6257): >128 µg/mL
Streptococcus sp.
  MIC Streptococcus agalactiae (GC 4564): 128 µg/mL (≈ 86.5 µM)
  MIC Streptococcus pneumoniae (ATCC 6301): 128 µg/mL (≈ 86.5 µM)
  MIC Streptococcus pneumoniae (GC 1894): 64 µg/mL (≈ 43.3 µM)
  MIC Streptococcus pneumoniae (GC 4565): 64 µg/mL (≈ 43.3 µM)
  MIC Streptococcus pyogenes (GC 4563): 128 µg/mL (≈ 86.5 µM)
Streptococcus sp.; strain ATCC 6301
  MIC Streptococcus pneumoniae (ATCC 6301): 128 µg/mL (≈ 86.5 µM)
Streptococcus sp.; strain GC 1894
  MIC Streptococcus pneumoniae (GC 1894): 64 µg/mL (≈ 43.3 µM)
Streptococcus sp.; strain GC 4563
  MIC Streptococcus pyogenes (GC 4563): 128 µg/mL (≈ 86.5 µM)
Streptococcus sp.; strain GC 4564
  MIC Streptococcus agalactiae (GC 4564): 128 µg/mL (≈ 86.5 µM)
Streptococcus sp.; strain GC 4565
  MIC Streptococcus pneumoniae (GC 4565): 64 µg/mL (≈ 43.3 µM)
[1]
  Clinical Chemistry (Day 10) % of Control, BUN: +157%
  Clinical Chemistry (Day 10) % of Control, Creatinine: +122%
[2]
  Anatomical Pathology (Day 10), Heart: 0
  Anatomical Pathology (Day 10), Kidney: +++
Escherichia coli
  MIC Escherichia coli (ATCC 25922): 128 µg/mL (≈ 86.5 µM)
  MIC Escherichia coli (GC 4559): 128 µg/mL (≈ 86.5 µM)
  MIC Escherichia coli (GC 4560): 8 µg/mL (≈ 5.41 µM)
